In PubChem BioAssay AID179 (DTP/NCI, 2004):
Calls of active or inactive are those of the source.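 How the source made its calls: active means compounds giving half or more protection of infected cells from virus-caused growth loss, again on retest; inactive means the rest.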 Where a SMILES comes first, the peptide text is derived from it. The star is where a group is joined. Boc = CC(C)(C)OC(=O)*

Test system: CEM cells HIV-1 protection, formazan growth assay
Experiment: NCI AIDS Antiviral Assay
Settings: for IC50: measured here: growth of uninfected CEM cells
Method in brief: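 Steps: treat uninfected and HIV-1-infected human CEM cells at five drug levels; quantify growth by soluble formazan; retest any compound reaching 50% protection; classify actives from the retest.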

Structure (SMILES)	EC50 [µM]	IC50 [µM]	outcome
COC(=O)CC(=O)C=P(c1ccccc1)(c1ccccc1)c1ccccc1	> 347	20.4	
CN1CCN(c2n[nH]c(=O)c3c2nnn3C2CCCCC2)CC1	> 200	> 200	
CCCSCC(P(=O)(O)O)P(=O)(O)O			inactive
CC(=O)[C@H]1CC[C@H]2[C@@H]3C=CC4=CC(=O)CC[C@@]4(C)[C@@H]3CC[C@]12C	> 126	79.4	
CC(C)[C@@H]1CC[C@]2(COC(=O)CC3(CC(=O)O)CCCC3)CC[C@]3(C)[C@H](CC[C@@H]4[C@@]5(C)CC[C@H](OC(=O)CC6(CC(=O)O)CCCC6)C(C)(C)[C@@H]5CC[C@]43C)[C@@H]12	> 200	6.46	
Cc1[nH]n(C(=N)N)c(=O)c1CCO	> 200	> 200	
O=C1CNc2cc(N3CCN(c4ccccc4)CC3)ccc2N1	> 200	25.1	
CC(=O)O[C@H]1CCC2[C@@H]3CCC4=C(O)c5nocc5C[C@]4(C)C3CC[C@@]21C (stereo partly drawn)	> 70.8		
CC(C)CNC(=O)Cn1c2c(c3ccccc31)CCCC2	> 200	81.3	
N#CC(C(=O)/C(=N\NC(N)=O)C(C#N)c1ccc(Cl)cc1)c1ccc(Cl)cc1 (stereo not drawn)	> 603	398	
N#Cc1ccccc1NC(=O)C(=O)C(C(=O)c1ccccc1-c1ccccc1)C1OC(=O)c2ccccc21 (stereo not drawn)	> 52.5	26.3	
COC(=O)C1(Cc2ccc3c(c2)CCC3)Cc2ccc3c(c2C1=O)CCC3 (stereo not drawn)	> 20	9.55	
CCCCCCCCCCCC(=O)c1c(O)cc(C)oc1=O	> 100	5.37	
COC(=O)C1CN=CN1CCc1ccccc1 (stereo not drawn)	> 200	> 200	
CCOC(=O)C(Cl)(NC(=O)NC(Cl)(C(=O)OCC)C(F)(F)F)C(F)(F)F (stereo not drawn)	> 200	> 200	
CC(=O)Nc1ccc2c(c1)nc1c3ccccc3ccn21	> 200	29.5	
CC(C)CC(NC=O)C(=O)NC(Cc1ccccc1)NC(=O)CNC(=O)C(C)NC(=O)C(N)Cc1ccc(O)cc1 (stereo not drawn)	141	151	
Nc1ccc(S(=O)(=O)N/N=C/c2ccc3c(c2)OCO3)cc1	> 81.3	> 81.3	
O=C1/C(=C\c2c(-c3ccccc3)nn(-c3ccccc3)c2O)C(c2ccccc2)=NN1c1ccccc1	> 100	> 100	
O=C(/C=N/O)Nc1ccc(Cl)c(I)c1	> 79.4	64.6	
CCCCC(O)(Cc1ccccc1)c1ccc(OCCN(CC)CC)cc1 (stereo not drawn)	> 200	14.1	
Cc1ccc(S(=O)(=O)N/N=C/c2oc(-c3ccccc3Cl)c(-c3ccccc3Cl)c2[N+](=O)[O-])cc1	> 7.08	> 7.08	
COc1cc(/C=C2\C(=O)N(c3cc(Cl)ccc3Cl)C(c3ccccc3)S2(=O)=O)cc(OC)c1OC (stereo not drawn)	> 200	120	

Structure (SMILES)	EC50 [µM]	IC50 [µM]	outcome
FC(F)(F)c1ccc(N=NN2CCCC2)cc1	> 200	22.9	
COCC(O)Cn1ccnc1[N+](=O)[O-] (stereo not drawn)	> 1230	> 1230	
O=C1C=CC(=O)c2c(O)c3c(c(O)c21)C[C@H](O)[C@H](O)[C@@H]3O	> 269	0.389	
COC(=O)CC1NC(=O)C1C(C)O[Si](C)(C)C(C)(C)C (stereo not drawn)	> 603	288	
O=C1c2ccccc2C(=O)c2c(O)ccc(O)c21	> 77.6	> 77.6	
O=C1C2=C(C(=O)C3=C1C1CCC3C1)C1CCC2C1	> 200	5.89	
CN=C(NC)N(C)c1nc(=[N+](C)C)ss1			inactive
COC(=O)C(Cc1nc2ccc(Cl)cc2[nH]c1=O)/C(=N/O)C(=O)Nc1cccc(Cl)c1C (stereo not drawn)	> 105	> 105	
N#Cc1c(N)nc(SCc2ccccc2)c(C#N)c1-c1ccc(O)cc1	> 200	10	
CSCCC(NC(=O)Cc1ccc(C(=O)c2ccccc2)cc1)C(=O)O (stereo not drawn)	> 200	> 200	
CCOC(=O)C1(C#N)CC1			inactive
CCOC(=O)C(=O)C(=O)NN(C)C1=NCCN1	> 200	> 200	
Cc1ccc(S(=O)OC2C3CC4CC(C3)CC2C4)cc1 (stereo not drawn)			inactive
O=[N+]([O-])C(=C1NCCN1)C(Cl)=C(Cl)Cl	> 200	> 200	
CCN1CCC(O)(c2ccccc2)C(C(=O)c2ccccc2)C1 (stereo not drawn)	> 646	33.9	
CC(C)N(C(=O)C12C3C4C5C3C1(C(=O)O)C5C42)C(C)C (stereo not drawn)	> 661	> 661	
C=C(Br)CN1CCC2(c3ccccc3)C(O)C([Se]c3ccccc3)CCC12 (stereo not drawn)	> 27.5	> 27.5	
Cc1cccc(N=C2NC(=O)C(CC(=O)Nc3ccc(C)cc3C)S2)c1 (stereo not drawn)	> 26.9	> 26.9	
O=S(=O)(O)C(O)/C=C/c1ccccc1 (stereo not drawn)			inactive
O=C(CC1Sc2ccccc2NC1=O)Nc1ccc([N+](=O)[O-])cc1[N+](=O)[O-] (stereo not drawn)	> 67.6	> 67.6	
C/C(=N/OC(=O)N(C)C)c1ccc(Cl)c(Cl)c1	> 200	102	
CC(=O)OCCc1cccnc1/C=N/O	> 1200	204	
NC(=S)N=Nc1c(O)cc(Nc2ccc(Cl)cc2Cl)c2ccccc12	> 138	97.7	

Structure (SMILES)	EC50 [µM]	IC50 [µM]	outcome
O=CN1CCN(c2ccc3ccc(=O)[nH]c3n2)CC1	> 200	> 200	
CC1(C)CC(=O)C2=C(C1)OC1=C(CC(C)(C)CC1=O)C2c1ccccc1Cl (stereo not drawn)	> 200	162	
N#Cc1c(/N=C/c2ccccc2Cl)sc2c1CCC2	> 200	> 200	
C[C@]12CC[C@H](O)CC1=CC[C@@H]1C2CC[C@]2(C)Nc3c(cnn3-c3ccccc3)CC12 (stereo partly drawn)			inactive
CCCCCCCCC/C=C/C=C/C(=O)NCC(=O)NC1C(O)C(O)C(Nc2ncnc3nc[nH]c23)OC1C(O)CO (stereo not drawn)	> 43.7	0.158	
Cn1nc(-c2ccc(Cl)cc2)[n+]([O-])c2c(=O)n(C)c(=O)nc1-2	> 200	3.31	
CC(/C=N\NC(=S)N1CCCCC1)=N/NC(=S)N1CCCCC1	> 200	1.78	
Cc1ccc2c(n1)C(N1CCCCC1)=CC(=O)C2=O			inactive
CCCCCC(=Nc1n[nH]nc1C(N)=O)OCC	> 200	> 200	
COc1cc2c(c3[nH]cc(C(=O)O)c(=O)c13)NC(=O)CS2	> 200	> 200	
COc1ccc([N+](=O)[O-])cc1NC(=O)c1ccc2c(c1)C(=O)OC2=O	29.5	64.6	
Cc1cc(O)c2c(c1)C(=O)C=C(Br)C2=O	> 100	1.58	
CSc1c(S(C)=O)[nH]c2cc(Br)cc(Br)c12 (stereo not drawn)			inactive
Cc1ccc(N=NC2=C3Sc4ccccc4N=C2N(c2ccc(Br)cc2)C(=S)N3c2ccc(Cl)cc2)cc1	> 45.7	> 45.7	
CCSc1[nH]c(NC(=S)NC(=O)c2ccccc2Cl)c(C(N)=O)c1C(N)=O	> 200	110	
CCOC(=O)/C=C/c1ccc(N(C)C)cc1	> 33.1	> 33.1	
CCOC(=O)C(CC(C)C)NC(=O)C(Cc1ccccc1)NC(=O)CNC(=O)OC(C)(C)C (stereo not drawn) (Boc-Gly-Phe-Leu-OEt; configuration not given here)	> 200	8.51	
CC(=O)OC1CC(OC(C)=O)[C@@]2(C)C[C@@H]3C(C)C(=O)O[C@H]3CC(C)C12 (stereo partly drawn)	> 74.1	42.7	
Cc1cc2nc(NS(=O)(=O)c3cc(C)c(Cl)cc3S)[nH]c2cc1C	> 200	> 200	
CC(C)N(C(=O)C12C3C4C5(C#N)C3C1(I)C5C42I)C(C)C (stereo not drawn)	> 14.1	> 14.1	
CC1CCC2c3c([nH]c4ccccc34)C3C(=O)N(c4ccccc4)C(=O)C3C2C1 (stereo not drawn)			inactive
O=C1NC(=O)C(=Cc2ccccc2Cl)C(=O)N1	> 269	2.63	
O=C(NS(=O)(=O)Nc1ccc(Cl)cc1)OCc1ccc(Cl)cc1Cl	> 200	34.7	

Structure (SMILES)	EC50 [µM]	IC50 [µM]	outcome
O=C1NCc2c1[nH]c(=O)[nH]c2=O	> 155	> 155	
Cc1cc2c(cc1C)[n+]([O-])c(NCCCN(C)C)c(C#N)[n+]2[O-]	> 200	72.4	
COC1=C(OC)C(O)(c2ccccc2)C1=O (stereo not drawn)			inactive
CCOC(=O)c1c(NC(=O)c2ccccc2)c(C#N)c2n1CCCCC2	> 100	> 100	
Cn1cnc2ccccc2c1=S	> 200	182	
CC(=O)/C(=C/c1ccccc1Cl)C(=O)c1ccccc1	> 91.2	19.1	
CN(C)/N=C(/c1nc2ccc([N+](=O)[O-])cc2[nH]c1=O)C(O)c1ccco1 (stereo not drawn)	> 263	191	
OC1(C23CC4CC(CC(C4)C2)C3)CSCC1(O)C12CC3CC(CC(C3)C1)C2 (stereo not drawn)	> 7.08	> 7.08	
CN(NC(=O)c1cccs1)C1=NCCN1	> 200	> 200	
CCCCNC(=O)Sc1ccccc1C(=O)N[C@H](C)C(N)=O	1.12	112	
CCCCCCNC(=S)N/N=C(\C)c1ccccn1	> 0.2	0.0324	
CCc1ccc(Nc2ccc([N+](=O)[O-])cc2[N+](=O)[O-])cc1			inactive
C=C1[C@@H](OC(C)=O)C[C@@H]2C[C@]3(C)C(OC(C)=O)CC(C)(C)[C@@H]3C12O (stereo partly drawn)	> 204	> 204	
CN(/N=C\c1ccnc2ccccc12)c1ccccc1			inactive
COC1OC2COC(c3ccccc3)OC2C2N=C(N)N([N+](=O)[O-])C12OS(C)(=O)=O (stereo not drawn)			inactive
CN1CCCNC(=S)C1			inactive
O=c1ccn(C2CC(O)C(CO)O2)c(=O)[nH]1 (stereo not drawn)	> 589	309	
C[C@]12CCC(=O)C=C1CC[C@@H]1C2CC[C@]2(C)Nc3c(cnn3-c3ccccc3)CC12 (stereo partly drawn)			inactive
ON=C(CC(O)(C(F)(F)Cl)C(F)(F)Cl)CC(O)(C(F)(F)Cl)C(F)(F)Cl	> 200	8.71	
CCC(=O)c1cn(C)c(=O)c2ccccc12			inactive
CCCC(C)N(CC(=O)Nc1ccc(S(N)(=O)=O)cc1)C(C)=O (stereo not drawn)	> 200	> 200	
